In ChEMBL document CHEMBL3751832, “Synthesis, in vitro and computational studies of 1,4-disubstituted 1,2,3-triazoles as potential α-glucosidase inhibitors” (Bioorg Med Chem Lett, 2016):
Counter-ions that a name gives are not always drawn.

Assay: Inhibition of yeast type-3 alpha-glucosidase using p-nitrophenyl-alpha-D-glucopyranoside as substrate after 30 mins
Design: species or system Saccharomyces cerevisiae

Row | IC50 [µM] | SMILES
1 | 235 | O=[N+]([O-])c1ccc(-n2cc(-c3ccccc3)nn2)cc1
2 | 255 | COC(=O)Cn1cc(-c2ccccc2)nn1
3 | 57.2 | Clc1ccccc1-n1cc(-c2ccccc2)nn1
4 | 265 | CC(=O)c1cccc(-n2cc(-c3ccccc3)nn2)c1
5 | 313 | CC(=O)c1ccccc1-n1cc(-c2ccccc2)nn1

Second part, the compound before the results:

Row | SMILES | IC50 [µM]
6 | OC1(c2cn(-c3ccccc3Cl)nn2)CCCCC1 | 370
7 | N#Cc1cc([N+](=O)[O-])ccc1-n1cc(C2(O)CCCCC2)nn1 | 49.7
8 | O=[N+]([O-])c1ccc(-n2cc(C3(O)CCCCC3)nn2)cc1 | 320
9 | CC(=O)c1cccc(-n2cc(C3(O)CCCCC3)nn2)c1 | 320
10 | COc1cccc(-n2cc(C3(O)CCCCC3)nn2)c1 | 245
11 | OC[C@H]1NC[C@H](O)[C@@H](O)[C@@H]1O [DUVOGLUSTAT HYDROCHLORIDE] | 3.49
